The record followed here is PMC11694061 (Cancer Research, 2024).

Read-outs that look alike come from different tables or passages of the source. Some results are limits rather than exact numbers.

For one assay, the system named is MIA PaCa-2 cells. The experiment in a line: Proliferation, MIA PaCa-2 (2D). The class given is cell-based. The conditions noted are these: Homo sapiens, MIA PaCa-2, 72 hours. Here is the method: (§1) Cells were inoculated onto 96-well plates and treated with compounds in serial dilutions for 3 or 5 days. […] The cell viability of primary patient samples was tested using the CellTiter-Glo Luminescent Assay kit (G7573, Promega) according to the manufacturer’s instructions. […] The optical density (OD) values were obtained using a SPARK microplate reader (Tecan). IC50 was calculated using GraphPad Prism 8.0.2 (nonlinear regression analysis with four parameters). Drug synergy was evaluated with combination index (CI) values using CalcuSyn Demo Version 2.0 software. CI > 1 indicates antagonism, CI < 1 indicates synergy, and CI = 1 indicates additivity.

For a further assay, the system named is MIA PaCa-2/R cells. The experiment in a line: Proliferation, MIA PaCa-2/R (2D). The settings on record: Homo sapiens, MIA PaCa-2/R (AMG510-resistant), 72 hours. The class given is cell-based. Here is the method:
as §1

The next assay relates to SW620 cells (G12V). In words: 3D growth inhibition, SW620. The format is cell-based. The settings on record: Homo sapiens, SW-620, 120 h, read-out: IC50 (3D culture), SW620. Here is the method: (§2) Cells were inoculated onto 96-well plates and treated with compounds in serial dilutions for 3 or 5 days. Cell viability was assessed using sulforhodamine B (230162, Sigma-Aldrich) assay and methyl thiazolyl tetrazolium (M5655, Sigma-Aldrich) assay for adherent and suspended cells, respectively, in accordance with previously described methods ([48]). The cell viability of primary patient samples was tested using the CellTiter-Glo Luminescent Assay kit (G7573, Promega) according to the manufacturer’s instructions. Three-dimensional cultivation was conducted in 96-well ultralow attachment plates (7007, Corning). The optical density (OD) values were obtained using a SPARK microplate reader (Tecan). IC50 was calculated using GraphPad Prism 8.0.2 (nonlinear regression analysis with four parameters). Drug synergy was evaluated with combination index (CI) values using CalcuSyn Demo Version 2.0 software. CI > 1 indicates antagonism, CI < 1 indicates synergy, and CI = 1 indicates additivity.

For assay [1], the system named is MIA PaCa-2 xenografts (KRAS^G12C). The experiment in a line: MIA PaCa-2 xenograft. The class given is in vivo, mouse. The settings on record: BI-3406 50 mg/kg twice daily, end of 24-day period. Here is the method:
(§3) Animal experiments were carried out following the guidelines of the Institutional Animal Care and Use Committee of Shanghai Institute of Materia Medica, Chinese Academy of Sciences, and Lingang Laboratory. […] All mice were raised till the tumor volumes reached approximately 100 mm^3 and were randomly assigned to either the vehicle or treated groups (n = 5/group). […] Body weights and tumor sizes of mice were recorded every 3 days. Tumor volumes were calculated as follows: ½ × length × width^2. On the final day of the experiment, the mice were euthanized and tumor samples were prepared for Western blot analysis.

The next assay deals with GP2d cells (KRAS^G12D). The experiment in a line: 3D growth inhibition, GP2d. The class given is cell-based. The settings on record: Homo sapiens, 120 h, read-out: IC50 (3D culture), GP2d. Here is the method: as §2
For assay [2], the system named is HPAF-II cells (KRAS^G12D). In words: 3D growth inhibition, HPAF-II. The format is cell-based. The conditions noted are these: Homo sapiens, 120 h, read-out: IC50 (3D culture), HPAF-II. Here is the method:
as §2

In the next assay the test system is 293T cells (KRAS-WT). In words: 3D growth inhibition, 293T. The format is cell-based. The conditions noted are these: Homo sapiens, HEK-293T, 120 h, read-out: IC50 (3D culture), 293T. Here is the method:
as §2

Assay [3] concerns NCI-H358 cells (KRAS^G12C). In words: 3D growth inhibition, NCI-H358. The class given is cell-based. The conditions noted are these: Homo sapiens, NCI-H358, 120 h, read-out: IC50 (3D culture), NCI-H358. Here is the method:
as §2

A further assay deals with K562 cells. In words: Proliferation, K562. The class given is cell-based, human. The conditions noted are these: Homo sapiens. Here is the method: as §1
In the next assay the test system is BxPC-3 cells (KRAS-WT). The experiment in a line: 3D growth inhibition, BxPC-3. The format is cell-based. The settings on record: Homo sapiens, BXPC-3, 120 h, read-out: IC50 (3D culture), BxPC-3. Here is the method: as §2
Another assay deals with T1, SOS1 in K562 cells (Homo sapiens, UniProt Q07889).
T1 construct: endogenous in cells; host or cells: K562
T1 sequence (Q07889 1-1333): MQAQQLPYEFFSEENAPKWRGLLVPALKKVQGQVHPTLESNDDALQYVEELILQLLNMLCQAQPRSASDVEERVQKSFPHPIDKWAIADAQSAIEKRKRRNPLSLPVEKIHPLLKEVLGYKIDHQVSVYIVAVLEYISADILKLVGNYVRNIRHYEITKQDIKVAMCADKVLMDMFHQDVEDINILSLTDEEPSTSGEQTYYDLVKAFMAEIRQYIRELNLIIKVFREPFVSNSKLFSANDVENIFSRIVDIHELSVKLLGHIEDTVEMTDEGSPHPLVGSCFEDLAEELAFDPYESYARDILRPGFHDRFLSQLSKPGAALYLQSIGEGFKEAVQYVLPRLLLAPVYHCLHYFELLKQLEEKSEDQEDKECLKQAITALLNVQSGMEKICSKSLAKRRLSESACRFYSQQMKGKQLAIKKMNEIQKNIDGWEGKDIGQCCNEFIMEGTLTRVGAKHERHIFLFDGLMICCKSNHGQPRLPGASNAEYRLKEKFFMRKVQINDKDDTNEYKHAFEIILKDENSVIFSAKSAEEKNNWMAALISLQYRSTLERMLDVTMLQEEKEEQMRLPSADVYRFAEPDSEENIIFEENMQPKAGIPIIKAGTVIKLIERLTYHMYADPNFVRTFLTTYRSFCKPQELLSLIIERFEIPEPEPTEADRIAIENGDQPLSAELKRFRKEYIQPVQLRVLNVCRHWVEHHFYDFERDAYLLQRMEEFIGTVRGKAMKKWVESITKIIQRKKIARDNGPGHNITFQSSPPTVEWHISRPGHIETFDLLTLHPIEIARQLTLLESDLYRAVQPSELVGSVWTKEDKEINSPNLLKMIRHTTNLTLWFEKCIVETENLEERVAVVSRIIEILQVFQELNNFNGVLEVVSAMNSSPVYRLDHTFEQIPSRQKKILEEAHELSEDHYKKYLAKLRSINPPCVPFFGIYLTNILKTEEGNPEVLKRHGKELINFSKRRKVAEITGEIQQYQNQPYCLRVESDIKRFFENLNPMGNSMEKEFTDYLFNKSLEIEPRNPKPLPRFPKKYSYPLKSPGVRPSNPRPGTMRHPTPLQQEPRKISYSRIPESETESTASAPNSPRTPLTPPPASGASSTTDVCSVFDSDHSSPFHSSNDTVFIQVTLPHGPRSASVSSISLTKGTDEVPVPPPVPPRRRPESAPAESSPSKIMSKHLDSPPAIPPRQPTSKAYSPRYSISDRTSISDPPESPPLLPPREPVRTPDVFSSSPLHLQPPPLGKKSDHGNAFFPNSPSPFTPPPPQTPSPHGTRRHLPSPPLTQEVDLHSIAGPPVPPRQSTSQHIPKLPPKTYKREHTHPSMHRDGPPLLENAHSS
The experiment in a line: SOS1 degradation in K562 cells (Western blot). The format is cell-based. The source says: After treatment, the cells were harvested with SDS lysis buffer, and SDS-PAGE gels were used to split the proteins in the lysate solutions. […] AB_2758039).
Background: Immunoblotting shows a protein as a band on a membrane.

The next assay relates to K562 xenografts. The experiment in a line: K562 xenograft. The class given is in vivo. The settings on record: imatinib (100 mg/kg) monotherapy, orally daily. Here is the method: as §3
Setting [4] is: K562, Table S1 screening, read-out: IC50 (cell proliferation inhibition in K562 cells).

Consider `C=CC(=O)N1CCN(c2nc(=O)n(-c3c(C)ccnc3C(C)C)c3nc(-c4c(O)cccc4F)c(F)cc23)[C@@H](C)C1` [AMG510, sotorasib], for which the IC50 with MIA PaCa-2 cells is 25 nM; in the assay with MIA PaCa-2/R cells, 590000 nM.
Turning to `COc1cc2nc(C)nc(N[C@H](C)c3cc(N)cc(C(F)(F)F)c3)c2cc1O[C@H]1CCOC1` [BI-3406], the IC50 was 18 nM in the assay with SW620 cells (G12V); 4.1 nM in the assay with GP2d cells (KRAS^G12D); 61.9 nM in assay [2]; > 10000 nM in the assay with 293T cells (KRAS-WT); 11 nM in [3]; 199 ± 32 nM with K562 cells (K562, read-out: IC50 (cell proliferation inhibition in K562 cells)). Also, in the assay with BxPC-3 cells (KRAS-WT), the IC50 came out at 692 nM. The compound further had a tumor growth inhibition in assay [1] of 62.0%.
On to `COc1cc2nc(C)nc(N[C@H](C)c3cc(N)cc(C(F)(F)F)c3)c2cc1OC1CCN(C(=O)CCCCCCCCSc2cccc3c2CN(C2CCC(=O)NC2=O)C3=O)CC1` (some centres unmarked) [SIAIS562080], for which the IC50 in the assay on K562 cells (setting [4]) amounted to 4950 ± 412 nM. Further, on SOS1 in K562 cells, the percent SOS1 degradation at 0.1 µM was -46.9 ± 11% and the percent SOS1 degradation at 1 µM amounted to 5.5 ± 3.2%.
Regarding `COc1cc2nc(C)nc(N[C@H](C)c3cc(N)cc(C(F)(F)F)c3)c2cc1O[C@H]1CCN(C(=O)CCCCCCCCCCCSc2cccc3c2CN(C2CCC(=O)NC2=O)C3=O)C1` (some centres unmarked) [SIAIS562082], the IC50 in the assay on K562 cells (setting [4]) came to 4680 ± 1210 nM. At SOS1 in K562 cells, the percent SOS1 degradation at 0.1 µM amounted to 21.3 ± 0.5% and the percent SOS1 degradation at 1 µM came to 71 ± 1.6%.
On to `COc1cc2nc(C)nc(N[C@H](C)c3cc(N)cc(C(F)(F)F)c3)c2cc1OC1CCN(C(=O)CCCCCCCCCCCSc2cccc3c2CN(C2CCC(=O)NC2=O)C3=O)CC1` (some centres unmarked) [SIAIS562083], for which the IC50 with K562 cells (setting [4]) worked out at 4130 ± 340 nM. At SOS1 in K562 cells, the percent SOS1 degradation at 0.1 µM is -5.4 ± 2.2% and the percent SOS1 degradation at 1 µM amounted to 35.5 ± 1%.
The term TGI denotes how far tumour growth fell short of that in controls. A high value points to much slowing of growth. Regarding `Cc1ccc(NC(=O)c2ccc(CN3CCN(C)CC3)cc2)cc1Nc1nccc(-c2cccnc2)n1` [imatinib], the TGI with K562 xenografts is 50.9%.
